Data published in publication PMC10184511 (Neuro-Oncology Advances, 2023).

What was measured:
[1] = metastatic melanoma patients, 200 mg/m^2 TMZ; cited from earlier work
[2] = system: p53-p21 axis in Mel-7 cells; assay: Western blotting of p53-p21 axis, cell-cycle proteins and Cyt c, Mel-7; type: cell-based, human; settings: 24 hours
[3] = description in words; cited from earlier work
[4] = In vitro 3D BBB permeability assay; type: in vitro ADME; settings: human, pH 7
BBB = settings: previous report; cited from earlier work

## Cn1nnc2c(C(N)=O)ncn2c1=O [TMZ, temozolomide]
[1]
  Cmax: ~ 20 μg/mL
[2]; single agent, cytosolic fraction
  Cyt c release into the cytoplasm: increased
[2]; single-agent treatment, whole-cell lysate
  p53 levels: substantially increased
[3]
  lipophilicity: lipophilic
[4]
  Papp A→B at 30 min, 100 μM: 2.67 ×10⁻⁶ cm/s
BBB
  BBB permeability: 2.7 ×10⁻⁶ cm/s
